Earlier results, collected in US11439614B2, “Fish egg extracts, omega-3 lipid-based compositions and uses thereof” (BIOFLASH INC., priority 2017, dated 2022).

System: ADHD symptoms

## [Mg+2] [magnesium]
200 mg daily for 6 months, 75 children with ADHD, vs conventional treatment (Starobat-Hermelin et al, 1997)
  Hyperactivity: decreased Hyperactivity

## O=S(=O)([O-])[O-].[Zn+2] [zinc sulfate]
150 mg for 12 weeks alone or 55 mg for 6 weeks with a conventional drug, 440 children
  Help for children with ADHD: could significantly help children with this condition
